The numbers were not newly measured in patent publication US9403784B1, “Fumarate compounds, pharmaceutical compositions thereof, and methods of use” (priority 2015, dated 2016), which cites them from elsewhere.

As for `COC(=O)/C=C/C(=O)OC` [DMF, dimethylfumarate], the aqueous solubility result is on record as “poor aqueous solubility”.
